In patent publication US9630963B2, “Quinolone derivatives as fibroblast growth factor inhibitors” (Principia Biopharma, Inc., priority 2013, dated 2017):
Where a name gives a salt, the structure may show the parent alone.

Tests used:
[1] = target: human recombinant FGFR2 (Homo sapiens, UniProt P21802); assay: FGFR family enzymatic activity assay (Caliper-based kinase assay), FGFR2; type: biochemical; conditions: FGFR2 0.1 nM, ATP 75 μM, peptide substrate 1 μM, room temperature 3 h
From the text: (§1) A Caliper-based kinase assay (Caliper Life Sciences, Hopkinton, Mass.) was used to measure inhibition of FGFR family (FGFR1, FGFR2, FGFR3, FGFR4) kinase activity of a compound of Formula (I′) or (I). […] This value is presented as the IC50.

[2] = target: human recombinant FGFR1 (Homo sapiens, UniProt P11362); assay: FGFR family enzymatic activity assay (Caliper-based kinase assay), FGFR1; type: biochemical; conditions: FGFR1 0.5 nM, ATP 100 μM, peptide substrate 1 μM, room temperature 3 h
From the text: as §1

[3] = target: human recombinant FGFR3 (Homo sapiens, UniProt P22607); assay: FGFR family enzymatic activity assay (Caliper-based kinase assay), FGFR3; type: biochemical; conditions: FGFR3 0.9 nM, ATP 120 μM, peptide substrate 1 μM, room temperature 3 h
From the text: as §1

[4] = target: human recombinant FGFR4 (Homo sapiens, UniProt P22455); assay: FGFR family enzymatic activity assay (Caliper-based kinase assay), FGFR4; type: biochemical; conditions: FGFR4 2 nM, ATP 250 μM, peptide substrate 1 μM, room temperature 3 h
From the text: as §1

[5] = system: SNU-16 cells; assay: Inhibition of FGFR2-dependent cell growth (Cell-titer Glo); type: cell-based; conditions: Homo sapiens, SNU16 cells, 72 hrs incubation, cell viability by Cell-titer Glo
Protocol: The cell-based effects of FGFR inhibitors were determined by measuring inhibition of FGFR-dependent cell line growth. […] Percent inhibition of cell growth was calculated as a percentage of untreated cell viability. The percent inhibition was plotted as a function of log compound concentration. The IC50 was then calculated for each compound using Prism software from GraphPad.

Chain of human recombinant FGFR1 (P11362 22-822): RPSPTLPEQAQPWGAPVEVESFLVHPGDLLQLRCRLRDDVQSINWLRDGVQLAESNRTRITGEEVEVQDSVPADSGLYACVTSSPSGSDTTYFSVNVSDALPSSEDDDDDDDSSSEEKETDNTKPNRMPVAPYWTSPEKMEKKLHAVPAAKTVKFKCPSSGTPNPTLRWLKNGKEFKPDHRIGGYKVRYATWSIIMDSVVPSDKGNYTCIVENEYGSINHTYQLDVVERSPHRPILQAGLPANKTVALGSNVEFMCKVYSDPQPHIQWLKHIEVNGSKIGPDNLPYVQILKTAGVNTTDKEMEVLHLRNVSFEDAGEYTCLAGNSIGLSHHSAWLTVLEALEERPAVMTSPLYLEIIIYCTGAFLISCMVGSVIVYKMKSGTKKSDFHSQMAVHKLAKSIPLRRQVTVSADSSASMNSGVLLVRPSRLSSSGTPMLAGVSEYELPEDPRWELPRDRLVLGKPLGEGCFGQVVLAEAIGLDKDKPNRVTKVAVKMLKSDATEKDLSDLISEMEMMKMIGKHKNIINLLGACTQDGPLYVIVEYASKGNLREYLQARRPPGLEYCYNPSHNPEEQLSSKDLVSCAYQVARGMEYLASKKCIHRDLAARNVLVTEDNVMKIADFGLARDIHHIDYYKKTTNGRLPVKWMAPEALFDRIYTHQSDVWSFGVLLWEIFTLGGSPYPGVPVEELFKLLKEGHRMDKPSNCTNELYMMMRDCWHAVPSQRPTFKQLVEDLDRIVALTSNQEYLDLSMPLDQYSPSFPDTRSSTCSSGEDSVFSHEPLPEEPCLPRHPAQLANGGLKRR
Chain of human recombinant FGFR3 (P22607 23-806): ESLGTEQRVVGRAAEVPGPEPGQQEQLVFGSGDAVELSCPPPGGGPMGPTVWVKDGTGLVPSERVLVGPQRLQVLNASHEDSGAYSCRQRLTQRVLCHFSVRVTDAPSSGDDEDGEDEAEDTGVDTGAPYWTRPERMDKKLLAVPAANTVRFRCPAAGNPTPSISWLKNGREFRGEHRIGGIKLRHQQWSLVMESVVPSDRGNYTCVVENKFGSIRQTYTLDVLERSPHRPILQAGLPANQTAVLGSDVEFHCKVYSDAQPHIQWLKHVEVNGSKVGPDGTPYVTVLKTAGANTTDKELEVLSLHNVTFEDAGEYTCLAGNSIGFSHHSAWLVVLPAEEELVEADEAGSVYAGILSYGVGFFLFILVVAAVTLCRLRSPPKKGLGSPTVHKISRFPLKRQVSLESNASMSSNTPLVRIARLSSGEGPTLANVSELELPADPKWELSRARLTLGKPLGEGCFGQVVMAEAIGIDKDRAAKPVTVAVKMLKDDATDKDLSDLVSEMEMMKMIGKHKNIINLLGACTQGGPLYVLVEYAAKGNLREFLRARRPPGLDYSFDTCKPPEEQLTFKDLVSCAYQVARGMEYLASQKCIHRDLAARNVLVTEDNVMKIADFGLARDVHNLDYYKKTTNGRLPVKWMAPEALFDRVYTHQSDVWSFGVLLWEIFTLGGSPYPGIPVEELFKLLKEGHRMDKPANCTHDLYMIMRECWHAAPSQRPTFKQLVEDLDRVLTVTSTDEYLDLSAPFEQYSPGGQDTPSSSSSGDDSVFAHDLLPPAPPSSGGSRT
Chain of human recombinant FGFR2 (P21802 22-821): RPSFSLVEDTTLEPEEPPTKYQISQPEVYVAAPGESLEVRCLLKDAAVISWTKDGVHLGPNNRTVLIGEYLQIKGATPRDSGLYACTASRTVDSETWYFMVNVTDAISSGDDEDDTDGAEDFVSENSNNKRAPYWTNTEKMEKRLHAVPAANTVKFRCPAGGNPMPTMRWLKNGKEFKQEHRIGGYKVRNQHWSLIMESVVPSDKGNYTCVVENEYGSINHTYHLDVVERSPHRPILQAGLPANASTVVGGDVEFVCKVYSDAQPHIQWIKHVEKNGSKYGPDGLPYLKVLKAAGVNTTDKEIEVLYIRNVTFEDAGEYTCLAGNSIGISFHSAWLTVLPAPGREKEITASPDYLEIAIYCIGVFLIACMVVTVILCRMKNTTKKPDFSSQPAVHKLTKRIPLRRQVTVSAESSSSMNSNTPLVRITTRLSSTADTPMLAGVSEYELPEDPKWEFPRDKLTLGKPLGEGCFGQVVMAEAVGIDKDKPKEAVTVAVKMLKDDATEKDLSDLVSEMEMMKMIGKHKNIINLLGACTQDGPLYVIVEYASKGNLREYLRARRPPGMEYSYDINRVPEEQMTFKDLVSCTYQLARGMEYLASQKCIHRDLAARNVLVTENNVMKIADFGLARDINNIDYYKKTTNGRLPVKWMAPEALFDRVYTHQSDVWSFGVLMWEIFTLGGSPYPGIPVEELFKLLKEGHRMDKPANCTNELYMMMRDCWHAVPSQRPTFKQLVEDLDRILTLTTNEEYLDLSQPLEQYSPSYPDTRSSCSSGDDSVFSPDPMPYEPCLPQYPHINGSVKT
Chain of human recombinant FGFR4 (P22455 22-802): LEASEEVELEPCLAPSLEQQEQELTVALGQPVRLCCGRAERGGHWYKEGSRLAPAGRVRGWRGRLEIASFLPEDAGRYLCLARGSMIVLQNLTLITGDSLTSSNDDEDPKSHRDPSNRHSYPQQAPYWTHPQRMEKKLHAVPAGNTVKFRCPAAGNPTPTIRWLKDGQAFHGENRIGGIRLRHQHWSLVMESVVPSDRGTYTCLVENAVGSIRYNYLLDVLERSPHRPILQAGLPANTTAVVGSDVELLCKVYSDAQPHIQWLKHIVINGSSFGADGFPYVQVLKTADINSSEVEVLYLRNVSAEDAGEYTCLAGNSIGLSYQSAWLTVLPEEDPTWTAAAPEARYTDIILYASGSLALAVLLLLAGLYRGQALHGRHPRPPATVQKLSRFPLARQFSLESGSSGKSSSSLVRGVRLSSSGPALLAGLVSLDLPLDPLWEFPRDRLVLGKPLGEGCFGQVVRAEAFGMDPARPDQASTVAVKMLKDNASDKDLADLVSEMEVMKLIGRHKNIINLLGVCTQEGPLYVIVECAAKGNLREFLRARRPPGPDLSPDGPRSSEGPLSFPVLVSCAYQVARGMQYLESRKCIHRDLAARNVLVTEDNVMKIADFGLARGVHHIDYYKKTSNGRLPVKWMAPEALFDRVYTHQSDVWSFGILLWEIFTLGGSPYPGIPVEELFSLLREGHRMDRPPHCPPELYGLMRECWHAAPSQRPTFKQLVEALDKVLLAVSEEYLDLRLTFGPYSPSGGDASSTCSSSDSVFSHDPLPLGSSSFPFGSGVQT

IC50 [1] | IC50 [2] | IC50 [3] | IC50 [4] | IC50 [5] | SMILES
1.5 nM | 1.1 nM | 5.5 nM | 32.4 nM | 5.6 nM | C=CC(=O)Nc1ccc(CCn2c(=O)c(-c3c(Cl)c(OC)cc(OC)c3Cl)cc3cnc(NCCCCN(CC)CC)nc32)cc1 [Example 5, N-(4-(2-(6-(2,6-dichloro-3,5-dimethoxyphenyl)-2-(4-(diethylamino)butylamino)-7-oxopyrido[2,3-d]pyrimidin-8(7H)-yl)ethyl)phenyl)acrylamide hydrochloride]
2 nM | 1.2 nM | 3.3 nM | 6.3 nM | 2.5 nM | C=CC(=O)Nc1ccc(CCn2c(=O)c(-c3c(Cl)c(OC)cc(OC)c3Cl)cc3cnc(NC)nc32)nc1 [Example 38, N-(6-(2-(6-(2,6-dichloro-3,5-dimethoxyphenyl)-2-(methylamino)-7-oxopyrido[2,3-d]pyrimidin-8(7H)-yl)ethyl)pyridin-3-yl)acrylamide]
2.6 nM | 2 nM | 9.6 nM | 71 nM | 3.7 nM | C=CC(=O)Nc1ccc(CCn2c(=O)c(-c3cc(OC)cc(OC)c3F)cc3cnc(NCCN4CCOCC4)nc32)cc1 [Example 43, N-(4-(2-(6-(2-fluoro-3,5-dimethoxyphenyl)-2-((2-morpholinoethyl)amino)-7-oxopyrido[2,3-d]pyrimidin-8(7H)-yl)ethyl)phenyl)acrylamide]
4.2 nM | 1.8 nM | 5.4 nM | 12.8 nM | 2.4 nM | C=CC(=O)Nc1ccc(CCn2c(=O)c(-c3c(Cl)c(OC)cc(OC)c3Cl)cc3cnc(NCCN4CCOCC4)nc32)nc1 [Example 51, N-(6-(2-(6-(2,6-dichloro-3,5-dimethoxyphenyl)-2-(2-morpholinoethylamino)-7-oxopyrido[2,3-d]pyrimidin-8(7H)-yl)ethyl)pyridin-3-yl)acrylamide]

Second part, the compound before the results:

SMILES | IC50 [1] | IC50 [2] | IC50 [3] | IC50 [4] | IC50 [5]
C=CC(=O)Nc1ccc(CCn2c(=O)c(-c3c(Cl)c(OC)cc(OC)c3Cl)cc3cnc(NC)nc32)cc1 [Example 4, N-(4-(2-(6-(2,6-dichloro-3,5-dimethoxyphenyl)-2-(methylamino)-7-oxopyrido[2,3-d]pyrimidin-8(7H)-yl)ethyl)phenyl)acrylamide] | 1.6 nM | 1.3 nM | 3.1 nM | 10.4 nM | 1.4 nM
C=CC(=O)Nc1cccc(Cn2c(=O)c(-c3c(Cl)c(OC)cc(OC)c3Cl)cc3cnc(NCCCCN(CC)CC)nc32)c1 [Example 6, N-(3-[[6-(2,6-dichloro-3,5-dimethoxyphenyl)-2-[[4-(diethylamino)butyl]-amino]-7-oxo-7H,8H-pyrido[2,3-d]pyrimidin-8-yl]methyl]phenyl)acrylamide] | 1 nM | 1.3 nM | 3.1 nM | 33.2 nM | 
C=CC(=O)Nc1ccc(CCn2c(=O)c(-c3cc(OC)cc(OC)c3Cl)cc3cnc(NCCN4CCOCC4)nc32)nc1 [Example 39, N-(6-(2-(6-(2-chloro-3,5-dimethoxyphenyl)-2-((2-morpholinoethyl)amino)-7-oxopyrido[2,3-d]pyrimidin-8(7H)-yl)ethyl)pyridin-3-yl)acrylamide] | 5.5 nM | 0.9 nM | 5.4 nM | 42 nM | 1.2 nM
C=CC(=O)Nc1ccc(CCn2c(=O)c(-c3c(Cl)c(OC)cc(OC)c3Cl)cc3cnc(NCCN4CCOCC4)nc32)cc1 [Example 44, N-(4-(2-(6-(2,6-dichloro-3,5-dimethoxyphenyl)-2-((2-morpholinoethyl)amino)-7-oxopyrido[2,3-d]pyrimidin-8(7H)-yl)ethyl)phenyl)acrylamide] | 2.5 nM | 1 nM | 4 nM | 14 nM | 3.1 nM
C=CC(=O)Nc1ccc(CCn2c(=O)c(-c3cc(OC)cc(OC)c3Cl)cc3cnc(NC(C)(C)CO)nc32)cc1 [Example 61, N-(4-(2-(6-(2-chloro-3,5-dimethoxyphenyl)-2-((1-hydroxy-2-methylpropan-2-yl)-amino)-7-oxopyrido[2,3-d]pyrimidin-8(7H)-yl)ethyl)phenyl)acrylamide] | 3.4 nM | 1.5 nM | 9.2 nM | 64.4 nM | 6.8 nM
